pIC50: −log10 of the molar value.
Tested on: 653999-131-R-J2-PDC complex spheroid viability
Test: Anticancer human tumor 653999-131-R-J2-PDC patient-derived lung adenocarcinoma cell line growth inhibition
Settings: for pIC50: curve of first compound; for viability, T/C: stronger effect = lower value; active means viability on the fitted dose curve at most 10% of control; inactive means the rest
Outline: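 Complex spheroids of tumor cells with HUVEC and human MSCs, exposed to iadademstat combined with other agents. Each agent tested in half-log steps from near clinical Cmax (else 10 microM top), DMSO ≤0.25%.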

[1] = second compound 0.1 µM, first compound 0.00949 µM
[2] = second compound 0.1 µM, first compound 0.03 µM
[3] = second compound 0.1 µM, first compound 0.0949 µM
[4] = second compound 0.1 µM, first compound 0.3 µM
[5] = second compound 0.316 µM, first compound 0.00949 µM
[6] = second compound 0.316 µM, first compound 0.03 µM
[7] = second compound 0.316 µM, first compound 0.0949 µM
[8] = second compound 0.316 µM, first compound 0.3 µM
[9] = second compound 1 µM, first compound 0.00949 µM
[10] = second compound 1 µM, first compound 0.03 µM
[11] = second compound 1 µM, first compound 0.0949 µM
[12] = second compound 1 µM, first compound 0.3 µM
[13] = second compound 3.16 µM, first compound 0.00949 µM
[14] = second compound 3.16 µM, first compound 0.03 µM
[15] = second compound 3.16 µM, first compound 0.0949 µM
[16] = second compound 3.16 µM, first compound 0.3 µM
[17] = second compound 10 µM, first compound 0.00949 µM
[18] = second compound 10 µM, first compound 0.03 µM
[19] = second compound 10 µM, first compound 0.0949 µM
[20] = second compound 10 µM, first compound 0.3 µM
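Further: spheroids exposed to agents for seven days before readout.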

CCN(c1cc(-c2ccc(CN3CCOCC3)cc2)cc(C(=O)NCc2c(C)cc(C)[nH]c2=O)c1C)C1CCOCC1 + NC1CCC(NC2CC2c2ccccc2)CC1
< 5.52: pIC50 (second compound 0.1 µM) | pIC50 (second compound 0.316 µM) | pIC50 (second compound 1 µM) | pIC50 (second compound 3.16 µM) | pIC50 (second compound 10 µM)
inactive: viability, T/C [1] 97.1% | viability, T/C [2] 93% | viability, T/C [3] 98.2% | viability, T/C [4] 94.9% | viability, T/C (second compound 0.1 µM, first compound 0.949 µM) 80.8% | viability, T/C (second compound 0.1 µM, first compound 3 µM) 74.9% | viability, T/C [5] 80.6% | viability, T/C [6] 88.9% | viability, T/C [7] 91.8% | viability, T/C [8] 80.9% | viability, T/C (second compound 0.316 µM, first compound 0.949 µM) 87.6% | viability, T/C (second compound 0.316 µM, first compound 3 µM) 72.2% | viability, T/C [9] 77.6% | viability, T/C [10] 101% | viability, T/C [11] 92.2% | viability, T/C [12] 76.3% | viability, T/C (second compound 1 µM, first compound 0.949 µM) 70.2% | viability, T/C (second compound 1 µM, first compound 3 µM) 78.8% | viability, T/C [13] 96.1% | viability, T/C [14] 94.5% | viability, T/C [15] 108% | viability, T/C [16] 84% | viability, T/C (second compound 3.16 µM, first compound 0.949 µM) 76.6% | viability, T/C (second compound 3.16 µM, first compound 3 µM) 83.9% | viability, T/C [17] 87.7% | viability, T/C [18] 84.9% | viability, T/C [19] 85.5% | viability, T/C [20] 76% | viability, T/C (second compound 10 µM, first compound 0.949 µM) 70% | viability, T/C (second compound 10 µM, first compound 3 µM) 82.4%

Nc1ncn(C2CC(O)C(CO)S2)c(=O)n1 (stereo not given) + NC1CCC(NC2CC2c2ccccc2)CC1
< 6.52: pIC50 (second compound 0.1 µM) | pIC50 (second compound 0.316 µM) | pIC50 (second compound 1 µM) | pIC50 (second compound 3.16 µM) | pIC50 (second compound 10 µM)
inactive: viability, T/C (second compound 0.1 µM, first compound 0.000949 µM) 83.8% | viability, T/C (second compound 0.1 µM, first compound 0.003 µM) 109% | viability, T/C [1] 90.8% | viability, T/C [2] 74.8% | viability, T/C [3] 70.4% | viability, T/C [4] 50.6% | viability, T/C (second compound 0.316 µM, first compound 0.000949 µM) 86.6% | viability, T/C (second compound 0.316 µM, first compound 0.003 µM) 81.6% | viability, T/C [5] 87.5% | viability, T/C [6] 74.5% | viability, T/C [7] 58% | viability, T/C [8] 51.9% | viability, T/C (second compound 1 µM, first compound 0.000949 µM) 89.5% | viability, T/C (second compound 1 µM, first compound 0.003 µM) 94% | viability, T/C [9] 86.3% | viability, T/C [10] 78.7% | viability, T/C [11] 67.8% | viability, T/C [12] 55.5% | viability, T/C (second compound 3.16 µM, first compound 0.000949 µM) 99% | viability, T/C (second compound 3.16 µM, first compound 0.003 µM) 92% | viability, T/C [13] 85.8% | viability, T/C [14] 81.3% | viability, T/C [15] 68.2% | viability, T/C [16] 54.7% | viability, T/C (second compound 10 µM, first compound 0.000949 µM) 88.9% | viability, T/C (second compound 10 µM, first compound 0.003 µM) 112% | viability, T/C [17] 88.8% | viability, T/C [18] 84.7% | viability, T/C [19] 63.7% | viability, T/C [20] 58.6%

O=C(C=Cn1cnc(-c2cc(C(F)(F)F)cc(C(F)(F)F)c2)n1)NNc1cnccn1 + NC1CCC(NC2CC2c2ccccc2)CC1
8.09: pIC50 (second compound 0.316 µM)
7.95: pIC50 (second compound 3.16 µM)
8.31: pIC50 (second compound 0.1 µM)
inactive: viability, T/C (second compound 0.1 µM, first compound 0.00316 µM) 53.1% | viability, T/C (second compound 0.1 µM, first compound 0.01 µM) 46.5% | viability, T/C (second compound 0.1 µM, first compound 0.0316 µM) 35.8% | viability, T/C (second compound 0.1 µM, first compound 0.1 µM) 30.6% | viability, T/C (second compound 0.1 µM, first compound 0.316 µM) 31.8% | viability, T/C (second compound 0.1 µM, first compound 1 µM) 19.6% | viability, T/C (second compound 0.316 µM, first compound 0.00316 µM) 57.2% | viability, T/C (second compound 0.316 µM, first compound 0.01 µM) 48.7% | viability, T/C (second compound 0.316 µM, first compound 0.0316 µM) 40.9% | viability, T/C (second compound 0.316 µM, first compound 0.1 µM) 34.6% | viability, T/C (second compound 0.316 µM, first compound 0.316 µM) 29.4% | viability, T/C (second compound 0.316 µM, first compound 1 µM) 26.2% | viability, T/C (second compound 1 µM, first compound 0.00316 µM) 53.6% | viability, T/C (second compound 1 µM, first compound 0.01 µM) 50.1% | viability, T/C (second compound 1 µM, first compound 0.0316 µM) 48% | viability, T/C (second compound 1 µM, first compound 0.1 µM) 34.6% | viability, T/C (second compound 1 µM, first compound 0.316 µM) 30.6% | viability, T/C (second compound 1 µM, first compound 1 µM) 22.4% | viability, T/C (second compound 3.16 µM, first compound 0.00316 µM) 64% | viability, T/C (second compound 3.16 µM, first compound 0.01 µM) 46.3% | viability, T/C (second compound 3.16 µM, first compound 0.0316 µM) 42.7% | viability, T/C (second compound 3.16 µM, first compound 0.1 µM) 35.4% | viability, T/C (second compound 3.16 µM, first compound 0.316 µM) 29.1% | viability, T/C (second compound 3.16 µM, first compound 1 µM) 21.9% | viability, T/C (second compound 10 µM, first compound 0.00316 µM) 60.4% | viability, T/C (second compound 10 µM, first compound 0.01 µM) 45.5% | viability, T/C (second compound 10 µM, first compound 0.0316 µM) 41% | viability, T/C (second compound 10 µM, first compound 0.1 µM) 40.6% | viability, T/C (second compound 10 µM, first compound 0.316 µM) 32.5% | viability, T/C (second compound 10 µM, first compound 1 µM) 24.2%
7.90: pIC50 (second compound 1 µM)
8.01: pIC50 (second compound 10 µM)

Source: PubChem BioAssay AID1918939 (Molecular Pharmacology Branch, DTP, NCI, 2023)
